Measurements reported in patent US20090004185A1, “AMINO-SUBSTITUTED QUINAZOLINE DERIVATIVES AS INHIBITORS OF BETA-CATENIN/TCF-4 PATHWAY AND CANCER TREATMENT AGENTS” (WYETH, priority 2007, published 2009).
Structures can show the parent of a compound that is named as a salt.

Assays:
SV40-Luc = SV40-Luc control luciferase reporter assay, SV 5A8 cell line (SV40-Luc and SV40-R-Luc), control for non-specific inhibitors; assay type: cell-based, human; details: Homo sapiens, SV5A8, 24 h, SV 5A8 cells derived from SW480; 24 hours of incubation with compound; ratio Firefly/Renilla luciferase
Summary of the method: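 Compound exposure lasted 24 h, starting 20-24 h after seeding 1×10^4 cells/well, with titrated doses and 0.316% final DMSO. Readout was dual firefly/Renilla luminescence; Renilla under an SV40 promoter corrects for cell number and toxicity, and SV 5A8 (SV40 firefly) flags non-specific inhibitors versus Tcf-4-driven lines 33.13 and 22C11. IC50s came from the F/R ratio (% of control).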

β-catenin/Tcf-4 = experiment: cells; assay type: cell-based; details: Homo sapiens, 24 hours of incubation with compound, ratio Firefly/Renilla luciferase
Summary of the method: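 SW480-derived lines with integrated reporters (Tcf-4-driven firefly luciferase; SV40 firefly as specificity control; SV40 Renilla for cell number/toxicity), treated 24 hours with titrated compounds, final 0.316% DMSO. Dual-luciferase read-out; firefly/Renilla ratio as % of control, duplicate plates, IC50 (nM) from curve fit.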

[1] = SW480, 24 h, Tcf 33.13 cells derived from SW480
[2] = Tcf22C11, 24 h, Tcf 22C11 cells derived from SW480

Row | Compound | melting point | IC50 (SV40-Luc) | IC50 (β-catenin/Tcf-4; [1]) | IC50 (β-catenin/Tcf-4; [2])
1 | CC(O)c1ccc2c(NCc3ccc(NC(=O)c4ccc(F)cc4)cc3)nc(N(C)C)nc2c1 (centres unmarked) (as salt: HCl) [Example 95, N-[4-({[2-(dimethylamino)-7-(1-hydroxyethyl)quinazolin-4-yl]amino}methyl)phenyl]-4-fluorobenzamide] | 232 °C | – | – | –
2 | CN(C)Cc1ccc2c(NCc3ccc(NC(=O)c4ccc(F)cc4)cc3)nc(N(C)C)nc2c1 (as salt: HCl) [Example 91, N-{4-[({2-(dimethylamino)-7-[(dimethylamino)methyl]quinazolin-4-yl}amino)methyl]phenyl}-4-fluorobenzamide] | 94 °C | – | – | –
3 | C#Cc1ccc2c(NCc3ccc(NC(=O)c4ccc(F)cc4)cc3)nc(N(C)C)nc2c1 (as salt: HCl) [Example 108, N-[4-({[2-(dimethylamino)-7-ethynylquinazolin-4-yl]amino}methyl)phenyl]-4-fluorobenzamide] | 250 °C | – | – | –
4 | CCc1ccc2c(NCc3ccc(NC(=O)c4ccc(F)cc4)cc3)nc(N(C)C)nc2c1 (as salt: HCl) [Example 88, N-[4-({[2-(dimethylamino)-7-ethylquinazolin-4-yl]amino}methyl)phenyl]-4-fluorobenzamide] | 270 °C | – | – | –
5 | O=C(O)CNc1nc(NCc2ccc(NC(=O)c3ccc(F)cc3)cc2)c2ccccc2n1 (as salt: HCl) [Example 127, N-[4-({4-[(4-fluorobenzoyl)amino]benzyl}amino)quinazolin-2-yl]glycine] | 235 °C | – | – | –
6 | C=Cc1ccc2c(NCc3ccc(NC(=O)c4ccc(F)cc4)cc3)nc(N(C)C)nc2c1 (as salt: HCl) [Example 87, N-[4-({[2-(dimethylamino)-7-vinylquinazolin-4-yl]amino}methyl)phenyl]-4-fluorobenzamide] | 145 °C | – | – | –
7 | C/C=C/c1ccc2c(NCc3ccc(NC(=O)c4ccc(F)cc4)cc3)nc(N(C)C)nc2c1 (as salt: HCl) [Example 96, N-{4-[({2-(dimethylamino)-7-[(1E)-prop-1-en-1-yl]quinazolin-4-yl}amino)methyl]phenyl}-4-fluorobenzamide] | 268 °C | – | – | –
8 | O=C(Nc1ccc(CNc2nc(Cl)nc3cc(I)ccc23)cc1)c1ccc(Cl)nc1 [Example 109, 6-chloro-N-(4-{[(2-chloro-7-iodoquinazolin-4-yl)amino]methyl}phenyl)nicotinamide] | 315 °C | – | – | –
9 | CN(C)c1nc(NCc2ccc(NC(=O)c3ccc(F)cc3)cc2)c2ccc(CN)cc2n1 (as salt: HCl) [Example 90, N-[4-({[7-(aminomethyl)-2-(dimethylamino)quinazolin-4-yl]amino}methyl)phenyl]-4-fluorobenzamide] | 245 °C | – | – | –
10 | CN(C)c1nc(NCc2ccc(NC(=O)c3ccc(Cl)nc3)cc2)c2ccc(I)cc2n1 (as salt: HCl) [Example 110, 6-chloro-N-[4-({[2-(dimethylamino)-7-iodoquinazolin-4-yl]amino}methyl)phenyl]nicotinamide] | 170 °C | – | – | –
11 | CN(C)c1nc(NCc2ccc(NC(=O)c3ccc(F)cc3)cc2)c2ccc(C#N)cc2n1 (as salt: HCl) [Example 89, N-[4-({[7-cyano-2-(dimethylamino)quinazolin-4-yl]amino}methyl)phenyl]-4-fluorobenzamide] | 150 °C | – | – | –
12 | CN(C)c1nc(NCc2ccc(NC(=O)c3ccc(F)cc3)cc2)c2ccc(CO)cc2n1 (as salt: HCl) [Example 93, N-[4-({[2-(dimethylamino)-7-(hydroxymethyl)quinazolin-4-yl]amino}methyl)phenyl]-4-fluorobenzamide] | 158 °C | – | – | –
13 | Cc1ccc2c(NCc3ccc(NC(=O)C4CCN(Cc5ccccc5)CC4)cc3)nc(N(C)C)nc2c1 (as salt: HCl) [Example 129, 1-benzyl-N-[4-({[2-(dimethylamino)-7-methylquinazolin-4-yl]amino}methyl)phenyl]piperidine-4-carboxamide] | 100 °C | – | – | –
14 | Cc1ccc2c(NCc3ccc(NC(=O)c4ccc(Cl)nc4)cc3)nc(N(C)C)nc2c1 (as salt: hydrochloride) [Example 242, 6-chloro-N-[4-({[2-(dimethylamino)-7-methylquinazolin-4-yl]amino}methyl)phenyl]nicotinamide] | 325 to 329 °C | – | – | –
15 | C/C=C\c1ccc2c(NCc3ccc(NC(=O)c4ccc(F)cc4)cc3)nc(N(C)C)nc2c1 (as salt: HCl) [Example 97, N-{4-[({2-(dimethylamino)-7-[(1Z)-prop-1-en-1-yl]quinazolin-4-yl}amino)methyl]phenyl}-4-fluorobenzamide] | 246 °C | – | – | –
16 | Cc1ccc2c(NCc3ccc(NC(=O)c4ccc(Cl)cc4)cc3)nc(N(C)C)nc2c1 [Example 196, 4-chloro-N-[4-({[2-(dimethylamino)-7-methyl-quinazolin-4-yl]amino}methyl)phenyl]benzamide] | – | > 1400 nM | 227 nM | 223 nM
17 | CN(C)c1nc(NCc2ccc(NC(=O)c3ccc(F)cc3)cc2)c2cc(CO)ccc2n1 [Example 71, N-[4-({[2-(dimethylamino)-6-(hydroxymethyl)quinazolin-4-yl]amino}methyl)phenyl]-4-fluorobenzamide] | – | > 11200 nM | 2340 nM | 2990 nM
18 | Cc1ccc2nc(N3CCN[C@H](C)C3)nc(NCc3ccc(NC(=O)C4CCN(Cc5ccccc5)CC4)cc3)c2c1 [Example 85, 1-benzyl-N-{4-[({6-methyl-2-[(3R)-3-methylpiperazin-1-yl]quinazolin-4-yl}amino)methyl]phenyl}piperidine-4-carboxamide] | – | > 2220 nM | 530 nM | 771 nM
19 | CC(C)c1ccc2c(NCc3ccc(NC(=O)c4ccc(Cl)nc4)cc3)nc(N(C)C)nc2c1 [Example 62, 6-chloro-N-[4-({[2-(dimethylamino)-7-isopropylquinazolin-4-yl]amino}methyl)phenyl]nicotinamide] | – | > 9780 nM | 808 nM | 1110 nM
20 | O=C(Nc1ccc(CNc2nc(N3CCCCC3)nc3ccccc23)cc1)c1ccc(F)cc1 [Example 123, 4-fluoro-N-(4-{[(2-piperidin-1-ylquinazolin-4-yl)amino]methyl}phenyl)benzamide] | – | > 11000 nM | 2930 nM | 5850 nM
21 | Cc1ccc2c(NCc3ccc(NC(=O)C4CCN(Cc5ccco5)CC4)cc3)nc(N(C)C)nc2c1 [Example 246, N-[4-({[2-(dimethylamino)-7-methylquinazolin-4-yl]amino}methyl)phenyl]-1-(2-furylmethyl)piperidine-4-carboxamide] | – | > 20100 nM | 1930 nM | 1830 nM
22 | Cc1cccc2c(N[C@@H](C)c3ccc(NC(=O)c4ccc(Cl)nc4)cc3)nc(N(C)C)nc12 [Example 273, (S)-6-chloro-N-(4-(1-(2-(dimethylamino)-8-methylquinazolin-4-ylamino)ethyl)phenyl)nicotinamide] | – | > 9360 nM | 3950 nM | > 2340 nM
23 | CN(C)c1nc(NCc2ccc(NC(=O)c3ccc(F)cc3)cc2)c2ccc(-c3ccccc3C=O)cc2n1 (as salt: HCl) [Example 98, N-[4-({[2-(dimethylamino)-7-(2-formylphenyl)quinazolin-4-yl]amino}methyl)phenyl]-4-fluorobenzamide] | 128 °C | – | – | –
24 | CNc1nc(NCc2ccc(NC(=O)c3ccc(F)c(F)c3)cc2)c2cc(C)ccc2n1 [Example 32, 3,4-difluoro-N-[4-({[6-methyl-2-(methylamino)quinazolin-4-yl]amino}methyl)phenyl]benzamide] | – | > 577 nM | 81 nM | 100 nM
25 | CN(C)c1nc(NCc2ccc(NC(=O)c3ccc(F)cc3)cc2)c2ccc(-c3cccnc3Cl)cc2n1 [Example 100, N-[4-({[7-(2-chloropyridin-3-yl)-2-(dimethylamino)quinazolin-4-yl]amino}methyl)phenyl]-4-fluorobenzamide] | – | > 17700 nM | 541 nM | 548 nM
26 | Cc1ccc2nc(N3CC=CC3)nc(NCc3ccc(NC(=O)C4CCN(Cc5ccccc5)CC4)cc3)c2c1 [Example 80, 1-benzyl-N-[4-({[2-(2,5-dihydro-1H-pyrrol-1-yl)-6-methylquinazolin-4-yl]amino}methyl)phenyl]piperidine-4-carboxamide] | – | > 9390 nM | 597 nM | 761 nM
27 | C/C=C/c1ccc2c(NCc3ccc(NC(=O)c4ccc(Cl)nc4)cc3)nc(N(C)C)nc2c1 (as salt: HCl) [Example 112, 6-chloro-N-{4-[({2-(dimethylamino)-7-[(1E)-prop-1-en-1-yl]quinazolin-4-yl}amino)methyl]phenyl}nicotinamide] | 185 °C | – | – | –
28 | Cc1ccc2nc(N3CCN(c4ncccn4)CC3)nc(NCc3ccc(NC(=O)C4CCN(Cc5ccccc5)CC4)cc3)c2c1 [Example 82, 1-benzyl-N-[4-({[6-methyl-2-(4-pyrimidin-2-ylpiperazin-1-yl)quinazolin-4-yl]amino}methyl)phenyl]piperidine-4-carboxamide] | – | > 7960 nM | 891 nM | 872 nM
29 | CCOC(=O)N1CCN(c2nc(NCc3ccc(NC(=O)c4ccc(F)cc4)cc3)c3ccc(C)cc3n2)CC1 [Example 218, ethyl 4-[4-({4-[(4-fluorobenzoyl)amino]benzyl}amino)-7-methylquinazolin-2-yl]piperazine-1-carboxylate] | – | > 15200 nM | 939 nM | 1280 nM
